This is an account of results in patent US9403829B2, “Pharmaceutical compositions of 7-(6-(2-hydroxypropan-2-yl)pyridin-3-yl)-1-((trans)-4-methoxycyclohexyl)-3,4-dihydropyrazino [2,3-b]pyrazin-2(1H)-one, a solid form thereof and methods of their use” (Signal Pharmaceuticals, LLC, priority 2011, dated 2016).

A short description of series [1]: Gravimetric vapour sorption (DVS) hygroscopicity. The following applies: for water uptake (mass gain): between 0 and 80% relative humidity, DVS, 25° C. In kind it is physicochemical. As for the experimental part: Sorption isotherms were obtained using a SMS DVS Intrinsic moisture sorption analyser, controlled by DVS Intrinsic Control software v1.0.0.30. The sample temperature was maintained at 25° C. by the instrument controls. The humidity was controlled by mixing streams of dry and wet nitrogen, with a total flow rate of 200 mL/min. The relative humidity was measured by a calibrated Rotronic probe (dynamic range of 1.0-100% RH), located near the sample. The weight change, (mass relaxation) of the sample as a function of % RH was constantly monitored by the microbalance (accuracy±0.005 mg). Typically 5-20 mg of sample was placed in a tared mesh stainless steel basket under ambient conditions. The sample was loaded and unloaded at 40% RH and 25° C. (typical room conditions). The standard isotherm was performed at 25° C. at 10% RH intervals over a 0-90% RH range. Data analysis was undertaken in Microsoft Excel using DVS Analysis Suite v6.0.0.7.
Hygroscopicity of Form A was determined by moisture adsorption and desorption.

Series [2] is described as follows: Phase 1 crossover pharmacokinetic study of tablet and capsule formulations, single oral dose. It is filed as in vivo, human. The method, then:
Certain formulations provided herein were evaluated in a Phase 1, open-label, randomized, crossover study.
On Day 1 of Period 1, following an overnight fast of at least 8 hours, subjects were randomized to one of the following 3 sequences to receive Treatment A, B or C (Table 30).
In Treatment A, one 20-mg reference Compound A API-in-capsule was administered orally after at least 8 hour fast with 240 mL of non-carbonated, room temperature water. In Treatment B, one 20-mg tablet of Compound A (Tablet Formulation XIII) was administered under fasted conditions. In Treatment C, four 5-mg tablets of Compound A (Tablet Formulation XIV) were administered under fasted conditions. The 20-mg tablet and four 5-mg tablets were administered orally after at least 8 hour fast with 240 mL of non-carbonated, room temperature water.
For each period, serial blood samples were collected before dosing (zero hour) and at 0.5, 1, 1.5, 2, 2.5, 3, 4, 6, 8, 12, 24, 48, 72, and 96 hours after dosing. Plasma concentrations of Compound A were determined for determining PK parameters, such as […], AUC0-∞, Cmax, Tmax, t1/2, CL/F, and Vz/F for Compound A. Plasma PK parameters were calculated using non compartmental methods. Analyses of variance (ANOVA) were performed on the natural log-transformed AUC0-t, AUC0-∞, and Cmax for Compound A. The geometric mean ratios (test/reference) and their 90% confidence intervals were also calculated. For Tmax, non parametric analysis was used to produce median differences.

Series [3] in a line: Phase 1 food effect study (Part 2), single 20-mg oral dose of Compound A tablet, fed vs fasted. The following applies: for CL/F / Tmax / AUC(0-inf) / Cmax / half-life / AUC(0-t) / Vd/F: single 20-mg oral dose of Compound A tablet; for CL/F / AUC(0-inf) / Cmax / half-life / AUC(0-t) / Vd/F: geometric mean; for Tmax / AUC(0-inf) / Cmax / half-life / AUC(0-t) / Vd/F: male, human, plasma, po, 20 mg; for Tmax: median, read-out: Tmax; for AUC(0-t): read-out: AUC0-24; for Vd/F: read-out: Vz/F. It is filed as in vivo, human. The method, then: The primary objectives of this study are: to characterize the biotransformation and excretion of Compound A following a single 20 mg oral dose of Compound A capsule containing a microtracer of [^14C]-Compound A solution in healthy male subjects (Part 1) and to evaluate the effect of a high-fat meal on the pharmacokinetics (PK) of Compound A following a single oral 20-mg dose of Compound A tablet (Part 2).
Part 2 design: Part 2 will be a 2-period crossover study; in Period 1, subjects (n=12) will be randomized to receive either an oral 20 mg dose of Compound A tablet (Treatment B) under fed (n=6) or fasted (n=6) conditions. In Period 2, subjects will receive Treatment B under converse conditions based on treatment assignment in Period 1. After screening, subjects (n=12) eligible for participation in the study will return to the study center on Day −1 for baseline assessments. Subjects who continue to be qualified for participation in the study will be randomized and enrolled in the study on the morning of Day 1. Subjects (n=6) will be enrolled and randomized to receive Treatment B under fed or fasted conditions on the morning of Day 1 after fasting for at least 8 hours. Fed subjects will be served a standard high fat meal breakfast, or its equivalent, that must be consumed within 30 minutes from serving. Dosing must occur 30 minutes (+5 minutes) after serving a subject breakfast. All subjects (fed and fasted) will fast (not to consume any food) until 4 hours post dose. Water will be allowed during the fasting period. Subjects will be domiciled at the study center from Day −1 until the morning of Day 5 of each period. Subjects will be discharged from the study center on the morning of Day 5 upon satisfactory safety review and completion of study-related procedures. Safety and tolerability data will be monitored and collected following each dosing period. Periods 1 and 2 will be separated by a washout period of at least 7 days (no more than 10 days) from prior dose to the next dose. In certain instances, a longer washout may be acceptable if previously agreed to.
Serial blood samples (10 mL) will be collected at predose (0 hour) and at 0.5, 1, 2, 3, 6, 12, 24, 48, 72 and 96 hours post dose for the determination of plasma concentrations of Compound A and the O-desmethyl metabolite of Compound A. Safety will be monitored throughout the study; safety evaluations will include AE reporting, physical examinations, vital sign measurements, ECG, and clinical laboratory safety tests. Concomitant medications will be assessed and recorded throughout the study as well. In addition, during the subjects' stay-in-the clinic (i.e., confinement period), fasting plasma glucose levels will be monitored as part of the clinical laboratory safety tests. For Parts 1 and 2, all subjects will return to the clinic within 7 to days after the last dose for follow up safety assessments. In the event that a subject discontinues prematurely from the study, every reasonable effort should be made (and documented) to ensure that all procedures and evaluations scheduled for the follow-up visit are performed at the time of discontinuation or a follow-up visit should be scheduled within 7 to days from the discontinuation day.
Part 2 dosing: In Part 2, subjects will fast overnight for at least 8 hours prior to Compound A administration. On the morning of Day 1, each subject will receive a 20-mg tablet of Compound A orally. Subjects randomized to receive Compound A under fed conditions will be a served a standard high fat meal (breakfast).
The standard high fat meal or its equivalent must be consumed within minutes of serving. Dosing must occur 30 minutes (+5 minutes) after serving the meal. The tablet will be administered with approximately 240 mL of non-carbonated, room temperature water. After dosing, subjects will continue to fast until 4 hours after dosing.

The mark [4] stands for this setting: fed vs fasted, healthy adult males, 20 mg Compound A.

On to `CO[C@H]1CC[C@H](N2C(=O)CNc3ncc(-c4ccc(C(C)(C)O)nc4)nc32)CC1` [Form A, 7-(6-(2-hydroxypropan-2-yl)pyridin-3-yl)-1-((trans)-4-methoxycyclohexyl)-3,4-dihydropyrazino[2,3-b]pyrazin-2(1H)-one], for which the hygroscopicity entry in series [1] (DVS moisture adsorption and desorption) is recorded as “not hygroscopic”. The “XRPD diffractogram after full adsorption/desorption cycle” value in series [1] (after DVS cycle) was “unchanged from the initial Form A”. In addition, the “water uptake (mass gain)” value was under 0.1 % w/w in series [1] and “less than 0.1 % w/w” in series [1] (listed as Form A of Compound A). For the same molecule, the weight gain result in series [1] (increase in humidity from about 0% to about 50% relative humidity at about 25° C.) is recorded as “about 0.1 % w/w”; in series [1] (increase in humidity from about 0% to about 95% relative humidity at about 25° C.) it was “about 0.3 % w/w”. In series [1] (increase in humidity from about 80% to about 90% relative humidity), the mass gain entry is recorded as “about 0.5 % w/w”.

Turning to `CO[C@H]1CC[C@H](N2C(=O)CNc3ncc(-c4ccc(C(C)(C)O)nc4)nc32)CC1` [Compound A, 7-(6-(2-hydroxypropan-2-yl)pyridin-3-yl)-1-((trans)-4-methoxycyclohexyl)-3,4-dihydropyrazino[2,3-b]pyrazin-2(1H)-one], the CL/F in series [2] (Treatment A: one 20-mg Compound A API-in-capsule, oral, fasted, n = 18, geometric mean) was 20.3 L/h; in series [3] (Fasted (n = 11)), 19.9 L/h; in series [3] (Fed (n = 11, high fat meal)), 16.7 L/h. The half-life in series [2] (male, human, plasma, Treatment A: one 20-mg Compound A API-in-capsule, oral, fasted, n = 18, geometric mean) is 5.7 h; in series [3] (Fasted (n = 11)) it was 5.3 h; in series [3] (Fed (n = 11, high fat meal)) it was 5.2 h. Moreover, the Vd/F in series [2] (male, human, plasma, Treatment A: one 20-mg Compound A API-in-capsule, oral, fasted, n = 18, geometric mean, read-out: Vz/F) came out at 167 L; in series [3] (Fasted (n = 11)), 151 L; in series [3] (Fed (n = 11, high fat meal)), 125 L. In addition, the Tmax was 1.5 h in series [2] (male, human, Treatment A: one 20-mg Compound A API-in-capsule, oral, fasted, healthy adult males, n = 18, plasma, median); 1 h in series [3] (Fasted (n = 11), healthy adult males); 3 h in series [3] (Fed (n = 11, high fat meal)). Also, the Cmax in series [2] (male, human, Treatment A: one 20-mg Compound A API-in-capsule, oral, fasted, n = 18, plasma, geometric mean) stood at 190 ng/mL; in series [3] (Fasted (n = 11)) it was 182 ng/mL; in series [3] (Fed (n = 11, high fat meal)), 156 ng/mL. Further, the AUC(0-t) in series [2] (male, human, Treatment A: one 20-mg Compound A API-in-capsule, oral, fasted, n = 18, plasma, geometric mean, read-out: AUC0-24) was found to be 934 ng·h/mL; in series [3] (Fasted (n = 11)), 955 ng·h/mL; in series [3] (Fed (n = 11, high fat meal)), 1130 ng·h/mL. Besides, the AUC(0-inf) stood at 985 ng·h/mL in series [2] (male, human, Treatment A: one 20-mg Compound A API-in-capsule, oral, fasted, n = 18, plasma, geometric mean, read-out: AUC0-∞); 1000 ng·h/mL in series [3] (Fasted (n = 11)); 1200 ng·h/mL in series [3] (Fed (n = 11, high fat meal)). For the same molecule, the “pharmacokinetics, tablet formulations vs API in capsule” value in series [2] (single dose 20 mg, healthy adult male subjects) was “comparable”. Further, the “decrease in Cmax with a high fat meal” value in series [3] (setting [4]) is given as about 17%. Further, in series [3] (setting [4]), the “increase in overall exposure (AUCinf) with a high fat meal” value is recorded as about 20%.
